Laboratory results as given in patent US20210392882A1, “METHODS AND COMPOSITIONS FOR IMPROVED INSECT REPELLENCY” (Board of Trustees of Michigan State University, priority 2020, published 2021).

Tests used:
[1] = system: sst-1 sensilla (sst-1A and sst-1B neurons); assay: Single sensillum recording (SSR) of antennal sst-1 sensilla; assay type: cell-based, Aedes aegypti; conditions: wild-type ROCK; pyrethrum at 10^−2
Procedure: Single sensilla recording was conducted as described in Liu et al. J Insect Physiol 59, 1169-1177 (2013). Female mosquitoes 4 days after eclosion were anaesthetized (2-3 min on ice) and mounted on a microscope slide (76×26 mm). An antenna was fixed using a double-sided tape to a cover slip resting on a small ball of dental wax to facilitate manipulation. The cover slip was placed at an appropriate angle to the mosquito head. Once mounted, the specimen was placed under a microscope (Nikon SMA645, Japan) and the antenna viewed at a high magnification (1000×). Two tungsten microelectrodes were sharpened in 10% KNO2 at 2-10 V. The reference electrode, which was connected to ground, was inserted into the compound eye of the mosquito and the other was connected to the preamplifier (10×, Syntech, Kirchzarten, Germany) and inserted into the shaft of an olfactory sensillum to complete the electrical circuit to extracellularly record olfactory receptor neuron potentials (Den Otter et al., Journal of Insect Physiology 26, 465-472 (1980)). Controlled manipulation of the electrodes was performed using a micromanipulator (Burleigh PCS-6000, CA). The preamplifier was connected to an analog-to-digital signal converter (IDAC-4, Syntech, Germany), which in turn was connected to a computer for signal recording and visualization. The activity of co-located olfactory receptor neurons in each sensillum was assessed based on the differences in spike amplitude. The large spike amplitude was designated as cell A and the olfactory receptor neuron with the small spike amplitude was designated cell B (Ghaninia et al. Eur J Neurosci 26, 1611-1623 (2007)). Signals were recorded for 10 seconds starting 1 second before stimulation, and the action potentials were counted off-line over a 500-ms period before and after stimulation. The spontaneous firing rates observed in the preceding 500 milliseconds (ms) were subtracted from the total spike rates observed during the 500-ms stimulation, and counts were recorded in units of spikes/second.
Eighteen compounds besides pyrethrum from different chemical classes were selected for functional classification of olfactory sensilla with various morphological shapes (Extended Data FIG. 2). Each compound was diluted in dimethyl sulfoxide (DMSO) to a stock solution with a concentration of 100 μg/μl. Subsequently, a series of 10-fold dilutions were made from each of the stock solutions for each compound tested. For each dilution, a 10 μl portion was dispersed onto a filter paper strip (4×10 mm), which was then inserted into a Pasteur pipette to create the stimulus cartridge. A sample containing the solvent alone served as control. The airflow across the antennae was maintained constant at a 20 ml/second throughout the experiment. Purified and humidified air was delivered to the preparation through a glass tube (10-mm inner diameter) perforated by a small hole 10 cm away from the end of the tube, into which the tip of the Pasteur pipette could be inserted. The stimulus was delivered to the sensilla by inserting the tip of the stimulus cartridge into this hole and diverting a portion of the air stream (0.5 l/min) to flow through the stimulus cartridge for 500 ms using a stimulus controller (Syntech, Germany). The distance between the end of the glass tube and the antennae was ≤1 cm. The number of spikes/second was obtained by averaging the results for each sensillum/compound combination.
To identify which mosquito olfactory receptor neuron(s) responds to pyrethrum, single sensillum recordings (SSR) were performed of Ae. aegypti antennal olfactory sensilla in response to a panel of odorants (FIG. 2C-2L), most of which are plant-derived mosquito repellents, such as pyrethrum, (±)-citronellal, geranyl acetate and (−)-borneol. Three responsive sst sensilla were identified, sst1-3, and six responsive sbt sensilla, sbt1-6, based on their response profiles to the odorants in the panel (FIG. 2B, 2D-2L).

Ae. aegypti mosquitoes = assay: Hand-in-cage spatial repellency assay; assay type: in vivo, Aedes aegypti
Excerpt: The hand-in-cage assay employed was similar to the hand-in-glove assay described by Boyle et al. (bioRxiv, 060178 (2016)). The setup for the hand-in-cage assay includes a 30 cm×30 cm×30 cm mosquito cage (BioQuip, Rancho Dominguea, Calif.), with a mounted digital camera and a human hand in a modified glove with a screened window. The digital camera (e-con Systems Inc, San Jose, Calif., model: e-CAM51A) for video recording is mounted on the cage top and connected to a laptop computer. A nitrile rubber glove (Ansell Protective Products, Coshoton, Ohio, part number: 37-155) was cut on the back side of the glove to create a window (6 cm×5 cm) (FIG. 1A). A piece of magnetic frame (slightly larger than the dimension of the window) was glued onto the cut window which was used as a base for stacking more magnetic window frames (FIG. 1A; further explained below). One piece of test compound-treated polyester netting (Shason Textile Inc., part number: WS-B532-111, white; slightly larger than the dimension of the window) was placed on this fixed magnetic frame, which was ˜3.0 mm above the glove. The second piece of the netting was untreated and placed ˜6.0 mm above the treated net using a stack of four magnetic frames. The stacked magnetic frames were further secured with a binder clip. The stacking creates sufficient space between the treated net and the untreated net so that mosquitoes that land on the open window were not able to contact treated net, or to contact and pierce skin of a hand in the glove. The hand makes no contact with the treated net.
The assay was run in a room with humidity between around 50% and temperature between 27° C. to 30° C. Twenty-four hours before an assay, four to nine days-old females (about 40, mated, non-blood fed) were transferred into a mosquito cage. The cage was kept in an incubator where mosquitoes were provided only with water in a cotton ball placed on the top of the cage. Immediately before the assay, one researcher treated pieces of netting with 500 μl test compound dissolved in acetone in a glass Petri dish in an adjacent room. Acetone served a control. After letting acetone evaporate (˜7 min), the researcher assembled and put on a modified glove. In the meantime, a second researcher or a lab assistant transferred the prepared cage from the incubator to a bench in the assay room. Both personnel avoided use of any hand lotions and cosmetic products before an assay and wore white lab coats and gloves during the assay. The hand with the modified glove was introduced into the cage to initiate the assay. Mosquitoes landing on the test window was recorded by the digital camera for five minutes. The number of mosquitoes landing during the second to fifth minutes was counted and recorded. For each cage, solvent (acetone) control was tested first and then followed with a treatment. Data from any cage that gave a low landing number in a control trial were discarded. The time interval of assays between control and treatment was at least 1.5 hours, allowing the mosquitoes to fully recover and residual vapors from experiments to be ventilated out of the room. Percentage repellency was determined for each cage using the following equation:
Percentage repellency=[1−(cumulative number of mosquitoes landed on the window of treatment/cumulative number of mosquitoes landed on the window of solvent treatment)]×100).
The spatial repellency of pyrethrum was examined using a hand-in-cage assay (Ogoma et al. PLoS neglected tropical diseases 11, e0005455 (2017)). In this behavioral assay, mosquitoes were attracted to a human hand in a modified glove (FIG. 1A) with a screened window on the back of the glove. The mosquitoes landed on a piece of control mesh secured on the top of the window. Between the control mesh and the hand is another mesh treated with a test compound, with which mosquitoes cannot make direct contact (FIG. 1A).

With `CC1(C)C2CCC1(C)C(O)C2` (single isomer, unassigned; (-)) [(−)-borneol] the “response of sst-1A neuron” value [1] was “activates”, the “repellency, Orlando vs orco−/−” value (Ae. aegypti mosquitoes; 10^−2 dilution, FIG. 4I) was “Orco-mediated” and the “effect of (E)-β-farnesene on repellency of the compound” value (Ae. aegypti mosquitoes; EBF 4 ppm, P-I 1000 ppm, P-II 1000 ppm, (−)-borneol 100 ppm, ROCK, FIG. 4D) was “No enhancement”.
